Legend:
[1] = system: A 549 non-small cell lung xenograft; assay: Example 4-B antitumor efficacy, ectopic A549 NSCLC xenograft model; assay type: in vivo, female nude mice (nu/nu)
Description: (§1) Specific pathogen-free homozygous female nude mice (nu/nu, Charles River Laboratories) were used. Mice were given food and water ad libitum and housed in microisolator cages. Four to six week old animals were identified by microchips (Locus Technology, Manchester, Md., USA) at the time of the experiments. All animal studies were approved by the Institutional Animal Care and Use Committee at Threshold Pharmaceuticals, Inc.
(§2) All cell lines were from the American Type Culture Collection (ATCC, Rockville, Md., USA).
(§3) Cells were mixed with Matrigel (50% with exception for 30% in the H460) and 0.2 ml per mouse were subcutaneously implanted to the flank area of the animals. When tumor size reached 100-150 250 mm3, mice were randomized into experimental or vehicle groups with 10 mice/group and treatment was started (Day 1). The tested compounds were formulated in 5% DMSO in D5W. The regimens employed in the examples include IP, QD×5/wk (5 days on, 2 days off) as one cycle, for a total of 2 cycles; IP, once; IP, weekly for total 3 weeks; and IV, weekly for 3 weeks. Tumor growth and body weight were measured twice a week. Tumor volume was calculated as (length×width2)/2. Drug efficacy was assessed as Tumor Growth Inhibition (TGI) and Tumor Growth Delay (TGD). TGI was defined as (1−ΔT/ΔC)×100, where ΔT/ΔC presented the ratio of the change in mean (or median, if variation within the group was relatively large) tumor volume of the treated group and of the control group. TGD was calculated as the extra days for the treated tumor to reach 500 mm3 or 1000 mm3 as compared to the control group. Animals were culled when individual tumor size reached over 2000 mm3 or mean tumor volume exceeded 1000 mm3 in the group. Data are expressed as the mean±SEM. One-way analysis of variance with Dunnett post comparison test (GraphPad Prism 4) or two-tailed student's t-test were used for analysis. A P level <0.05 was considered statistically significant.
The dosing was as follows. Daily IP dosing: 5 doses then 2 days off then 5 more doses starting at 110 mm^3 tumors on day 1 (10 animals per group average tumor volume).
Doses were selected by first doing a toxicity test in CD1 mice as described above. The compounds were tested against Thio-tepa.

H460 cells = assay: Proliferation assay in H460 cells (2 hr exposure, AlamarBlue); assay type: cell-based, human; conditions: Homo sapiens, NCI-H460, 2 hrs exposure, wash, 70 hrs growth, read-out: IC 50 in proliferation assay in H460 cells
Procedure: In vitro proliferation data on the H460 […] human tumor cell line is reported above in the compound table.
Specifically, exponentially growing cells were seeded at a density of 4×10^3 cells per well in a 96 well plate and incubated at 37° C. in 5% CO2, 95% air and 100% relative humidity for 24 hours prior to addition of test compounds. Compounds were solubilized in 100% DMSO at 200 times the desired final test concentration. At the time of drug addition, compounds were further diluted to 4 times the desired final concentration with complete medium. Aliquots of 50 μl of compound at specified concentrations were added to microtiter wells already containing 150 μl of medium, resulting in the final drug concentration reported. After drug addition, the plates were incubated for an additional 2 hours at 37° C., 5% CO2, 95% air, and 100% relative humidity, then the drug was washed off and fresh medium was added and the plates were incubated for addition 70 hrs at 37° C., 5% CO2, 95% air and 100% relative humidity. At the end of this incubation, the viable cells were quantified using the AlamarBlue assay. The drug concentration resulting in growth inhibition of 50% (IC50) was calculated using Prism software (Irvine, Calif.), and the results were listed in the table.

[2] = Example 4-C body weight change, A375 xenograft study; assay type: in vivo, female nude mice (nu/nu); conditions: qd × 5 × 2, ip
Procedure: as §3
his study employed an A375 melanoma human tumor xenograft model and various compounds provided herein were compared to thiotepa and the approved anti melanoma drug, nab-Paclitaxel. The antitumor effects and the safety of administration are graphically illustrated below.

[3] = Example 4-B body weight change, A549 xenograft study; assay type: in vivo, female nude mice (nu/nu)
Procedure: as §3
Antitumor effects of compounds provided herein were determined on A 549 non-small cell lung xenograft model in comparison with a chemotherapy agent, thiotepa. The dosing was as follows. Daily IP dosing: 5 doses then 2 days off then 5 more doses starting at 110 mm^3 tumors on day 1 (10 animals per group average tumor volume). The antitumor effects and the safety of administration are graphically illustrated below.

[4] = system: A375 melanoma human tumor xenograft; assay: Example 4-C antitumor efficacy, ectopic A375 melanoma xenograft model; assay type: in vivo, female nude mice (nu/nu); conditions: qd × 5 × 2, ip; for inhibition in vivo at 10 mg/kg: A-375, 10 mpk
Description: as §1, §2, §3
his study employed an A375 melanoma human tumor xenograft model and various compounds provided herein were compared to thiotepa and the approved anti melanoma drug, nab-Paclitaxel.

[5] = Pharmacokinetics in CD-1 mice following a single intraperitoneal dose (parent and TH2660); conditions: mouse, in vivo, ip, parent compound
Procedure: The pharmacokinetics of TH2873, TH2883, TH2888, TH2890, TH2901 and TH2926 were determined in CD-1 mice following a single intraperitoneal dose.
The pharmacokinetics of TH2660, the active metabolite, following a single intraperitoneal dose of TH2873, TH2883, TH2888, TH2890, TH2901 and TH2926 are shown below.

A549 NSCLC xenograft = assay: Example 4-D antitumor efficacy, ectopic A549 NSCLC xenograft model; assay type: in vivo, female nude mice (nu/nu); conditions: 10 mg/kg IP QD × 5/wk × 2 wks
Description: as §1, §2, §3
(§4) The compounds were tested in another A549 model. The compounds were dosed as follows. Daily IP dosing: 5 doses then 2 days off then 5 more doses starting at 100 mm^3 tumors on day 1 (10 animals per group average tumor volume). The antitumor effects and the safety of administration are graphically illustrated below.

[6] = Example 4-D body weight change and lethal toxicity, A549 xenograft study; assay type: in vivo, female nude mice (nu/nu); conditions: 10 mg/kg IP QD × 5/wk × 2 wks
Procedure: as §3, §4

| SMILES | TGD 500 ([1]; 10 mg/kg ip QD × 5/wk × 2 wks) [days] | TGI ([1]; 10 mg/kg ip QD × 5/wk × 2 wks) [%] | IC50 (H460 cells) [nM] | Max. BW loss % ([2]; 10 mpk) [%] | Max. BW loss % ([3]; 10 mg/kg ip QD × 5/wk × 2 wks) [%] | TGD 500 ([4]; 10 mpk) [days] | TGD 1000 ([4]; 10 mpk) [days] | inhibition in vivo at 10 mg/kg ([4]; Mus musculus, read-out: TGI) [%] | AUC [5] [ng·h/mL] | Cmax [5] [ng/mL] | Tmax [5] [min] | half-life [5] [min] | also measured |
| --- | --- | --- | --- | --- | --- | --- | --- | --- | --- | --- | --- | --- | --- |
| O=[N+]([O-])c1ccc(COP(=O)(N2CC2)N2CC2)cc1Oc1ccccc1 [Compound 2850] | 70 | 94.3 | 20 | 2.8 | 0.9 | -2 | 0 | 2.7 | – | – | – | – | TGD 500 ([1]; 20 mg/kg ip QD × 5/wk × 2 wks): >72 days; TGI ([1]; 20 mg/kg ip QD × 5/wk × 2 wks): 88.1%; Max. BW loss % ([3]; 20 mg/kg ip QD × 5/wk × 2 wks): 7.4% |
| CC(OP(=O)(N1CC1)N1CC1)c1ccc([N+](=O)[O-])c(Oc2cccnc2)c1 (stereo not shown) [Compound 2852] | >72 | 95.1 | 20 | 2.6 | 0.0 | 3 | 1 | 12.4 | – | – | – | – | – |
| COc1ccc(Oc2cc(C(C)OP(=O)(N3CC3)N3CC3)ccc2[N+](=O)[O-])cc1 (stereo not shown) [Compound 2873] | – | – | 5 | – | – | – | – | – | 2100 | 8430 | 5 | 8.81 | Max. BW loss % ([2]; 40 mpk): 0%; TGD 500 ([4]; 40 mpk): 12 days; TGD 1000 ([4]; 40 mpk): 11 days; inhibition in vivo at 40 mg/kg ([4]; Mus musculus, A-375, 40 mpk, read-out: TGI): 65% |
| CC(OP(=O)(N1CC1)N1CC1)c1ccc([N+](=O)[O-])c(Oc2ccc(S(C)(=O)=O)cc2)c1 (stereo not shown) [Compound 2883] | – | – | 30 | – | – | – | – | – | 9080 | 7570 | 15 | 23.4 | TGD 500 (A549 NSCLC xenograft): >85 days; TGI (A549 NSCLC xenograft): 93.5%; Max. BW loss % [6]: 15.8%; Lethal Tox ([6]; 10 animals per group): 5 |
| O=[N+]([O-])c1ccc(COP(=O)(N2CC2)N2CC2)cc1Oc1ccc2c(c1)OCO2 [Compound 2888] | – | – | 3 | 4.8 | – | 6 | 6 | 37.3 | 1600 | 5810 | 5 | 10.9 | – |
| Cc1ccc(Oc2cc(COP(=O)(N3CC3)N3CC3)ccc2[N+](=O)[O-])cn1 [Compound 2890] | – | – | 6 | 6.3 | – | 10 | 10 | 58.4 | 613 | 2730 | 5 | 5.49 | – |

From patent publication US10766914B2, “DNA alkylating agents” (OBI PHARMA, INC., priority 2015, dated 2020)
